# Patent publication US9890152B2 (Genentech, Inc., priority 2012, dated 2018)
# Key:
# EGFR del746-750 T790M = target: T1, EGFR del746-750 T790M (Homo sapiens, UniProt P00533, DEL746-750/T790M); assay: EGFR del746-750 T790M biochemical assay (Caliper mobility shift); details: 5 μM ATP, 30 min, room temperature; apparent Ki (Morrison) converted by Cheng-Prusoff, Km of ATP 2.1 μM; read-out: EGFR(T790M/d746-750) Ki
# T1 construct: purchased Carna Biosciences 08-528
# [1] = target: T2, phosphor-EGFR in H1975(L585R/T790M) mutant EGFR expressing cells (Homo sapiens, UniProt P00533, L858R/T790M); assay: H1975 pEGFR MSD cellular assay; assay type: cell-based; details: NCI-H1975 cells, serum starved, 1 hour compound incubation, pEGFR Tyr1068 MSD
# T2 construct: host or cells: NCI-H1975
# Protocol: H1975 pEGFR MSD Cellular Assays Background:
# These assays are intended for determining cellular. […] (Meso Scale Discovery Catalog# N31CB-1).
# All cell culture reagents were purchased from Invitrogen/Gibco. Cells are cultured at 37° C. at 5% CO2 and split as recommended by ATCC.
# Cell Plating and Serum Starvation:
# After six hours, culture medium is aspirated and replaced with serum-free culture medium. Cells are then incubated with the serum-free medium overnight at 37° C. and 5% CO2.
# The following day, test compounds are serially diluted in dimethyl sulfoxide (DMSO) and added to cells in serum free medium (final DMSO concentration 0.5%). Assay plates are then incubated for 1 hour at 37° C. and 5% CO2. Following 1 hour of compound incubation cells are then lysed and processed as per the MSD pEGFR assay kit protocol. Cell lysates are added to assay plates pre-coated with antibodies against phosphorylated EGFR. Phosphorylated EGFR in samples are allowed to bind to the capture antibodies overnight at 4° C. The detection antibody (anti-total EGFR, labeled with an electrochemiluminescent SULFO-TAG) is added to the bound lysate and incubated for 1 hour at room temperature. The MSD Read Buffer is added such that when a voltage is applied to the plate electrodes, the labels bound to the electrode surface emit light. The MSD Sector Instrument measures the intensity of the light, and quantitatively measures the amount of phosphorylated-EGFR in the sample. Percent inhibition of EGFR phosphorylation by varying concentrations of test compounds is calculated relative to untreated controls. EC50 values are calculated using the 4 parameter logistic nonlinear regression dose-response model.
# T1 sequence (P00533 with tags, fused parts or gaps DEL746-750/T790M limits assumed): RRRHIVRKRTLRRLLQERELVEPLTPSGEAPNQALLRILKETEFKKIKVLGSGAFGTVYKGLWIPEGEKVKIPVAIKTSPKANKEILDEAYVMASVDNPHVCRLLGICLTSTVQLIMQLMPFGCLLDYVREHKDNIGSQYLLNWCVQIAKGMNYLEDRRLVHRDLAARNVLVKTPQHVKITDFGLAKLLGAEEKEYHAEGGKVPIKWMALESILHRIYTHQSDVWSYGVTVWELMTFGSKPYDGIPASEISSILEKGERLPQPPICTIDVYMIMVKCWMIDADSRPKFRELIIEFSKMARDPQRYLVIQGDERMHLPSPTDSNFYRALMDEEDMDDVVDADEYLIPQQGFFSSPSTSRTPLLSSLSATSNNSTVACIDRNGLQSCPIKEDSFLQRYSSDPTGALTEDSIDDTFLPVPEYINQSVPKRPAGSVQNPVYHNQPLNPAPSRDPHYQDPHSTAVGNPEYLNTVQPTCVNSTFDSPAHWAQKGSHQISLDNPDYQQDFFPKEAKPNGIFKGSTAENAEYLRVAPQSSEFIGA
# T2 sequence (P00533 25-1210 T790M/L858R): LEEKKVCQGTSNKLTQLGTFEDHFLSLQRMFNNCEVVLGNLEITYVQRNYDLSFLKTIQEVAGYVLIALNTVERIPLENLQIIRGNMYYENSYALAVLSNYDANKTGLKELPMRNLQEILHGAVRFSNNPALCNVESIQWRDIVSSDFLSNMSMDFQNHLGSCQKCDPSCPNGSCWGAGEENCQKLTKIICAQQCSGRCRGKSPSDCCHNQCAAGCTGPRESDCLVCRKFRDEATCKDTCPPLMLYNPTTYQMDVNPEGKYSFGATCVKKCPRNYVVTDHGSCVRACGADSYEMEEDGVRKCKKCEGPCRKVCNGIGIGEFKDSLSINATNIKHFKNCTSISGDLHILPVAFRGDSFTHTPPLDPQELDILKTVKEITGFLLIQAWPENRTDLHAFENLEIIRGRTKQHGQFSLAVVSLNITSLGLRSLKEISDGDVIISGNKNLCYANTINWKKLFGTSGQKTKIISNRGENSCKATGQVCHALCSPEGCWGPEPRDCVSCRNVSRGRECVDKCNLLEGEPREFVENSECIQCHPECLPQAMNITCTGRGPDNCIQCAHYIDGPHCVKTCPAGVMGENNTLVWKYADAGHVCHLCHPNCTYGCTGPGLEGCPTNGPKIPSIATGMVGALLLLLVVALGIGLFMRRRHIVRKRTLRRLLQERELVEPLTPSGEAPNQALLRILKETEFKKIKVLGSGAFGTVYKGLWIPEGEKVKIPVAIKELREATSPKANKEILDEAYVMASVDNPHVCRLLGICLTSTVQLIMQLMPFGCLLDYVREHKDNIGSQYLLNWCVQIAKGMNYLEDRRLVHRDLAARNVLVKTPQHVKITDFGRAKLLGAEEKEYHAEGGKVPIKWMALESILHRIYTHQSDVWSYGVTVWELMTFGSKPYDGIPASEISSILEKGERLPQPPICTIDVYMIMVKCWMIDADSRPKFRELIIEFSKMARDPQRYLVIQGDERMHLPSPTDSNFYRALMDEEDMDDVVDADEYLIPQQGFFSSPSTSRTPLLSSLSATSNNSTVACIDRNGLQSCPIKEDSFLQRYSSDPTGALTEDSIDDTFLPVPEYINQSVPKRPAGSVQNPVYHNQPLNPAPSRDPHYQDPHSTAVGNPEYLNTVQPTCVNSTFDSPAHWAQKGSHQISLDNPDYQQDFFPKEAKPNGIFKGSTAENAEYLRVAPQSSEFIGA
Ki (EGFR del746-750 T790M),EC50 [1],Structure (SMILES)
5.61 nM,1370 nM,"CC1(C)CCOc2nc3cnc(Nc4ccnc(-c5cnn(S(=O)(=O)C6CC6)c5)n4)cc3n21 [Example 534, [2-(1-Cyclopropanesulfonyl-1H-pyrazol-4-yl)-pyrimidin-4-yl]-(4,4-dimethyl-3,4-dihydro-2H-1-oxa-4a,7,9-triazafluoren-6-yl)amine]"
5.47 nM,239 nM,"CCNC(=O)c1cn(C(C)CC)c2cc(Nc3ccnc(N4CC[C@@H](O)[C@@H](F)C4)n3)ncc12 (single isomer, unassigned) [Example 369]"
–,1810 nM,"O=S(=O)(C1CC1)n1cc(-c2nccc(Nc3cc4c(cn3)nc(CO)n4-c3ccccc3)n2)cn1 [Example 475, (6-(2-(1-(cyclopropylsulfonyl)-1H-pyrazol-4-yl)pyrimidin-4-ylamino)-l-phenyl-1H-imidazo[4,5-c]pyridin-2-yl)methanol]"
–,167 nM,"C[C@H](n1c([C@@H](C)O)nc2cnc(Nc3ccnc(-c4cnn(S(=O)(=O)C5CC5)c4)n3)cc21)C(F)(F)F [Example 572, (R)-1-[6-[2-(1-Cyclopropanesulfonyl-1H-pyrazol-4-yl)-pyrimidin-4-ylamino]-1-((S)-2,2,2-trifluoro-1-methylethyl)-1H-imidazo[4,5-c]pyridin-2-yl]-ethanol]"

# More lines, now with the values behind:
Structure (SMILES),Ki (EGFR del746-750 T790M),EC50 [1]
"COC1CCN(c2nccc(Nc3cc4c(cn3)ncn4C3CCCC3)n2)CC1 [Example 26, (1-Cyclopentyl-1H-imidazo[4,5-c]pyridin-6-yl)-[2-(4-methoxy-piperidin-1-yl)-pyrimidin-4-yl]amine]",25.2 nM,1190 nM
"COC1CCN(c2nccc(Nc3cc4c(cn3)nc(C)n4C(C)C)n2)CC1 [Example 5, (1-Isopropyl-2-methyl-1H-imidazo[4,5-c]pyridin-6-yl)-[2-(4-methoxypiperidin-1-yl)pyrimidin-4-yl]amine]",47.7 nM,871 nM
"CC1(C)COc2nc3cnc(Nc4ccnc(-c5cnn(S(=O)(=O)C6CC6)c5)n4)cc3n21 [Example 280, [2-(1-Cyclopropanesulfonyl-1H-pyrazol-4-yl)-pyrimidin-4-yl]-(3,3-dimethyl-2,3-dihydro-1-oxa-3a,6,8-triazacyclopenta[a]inden-5-yl)-amine]",8.86 nM,1740 nM
"CNc1ncc(-c2nccc(Nc3cc4c(cn3)nc(C)n4C(C)C)n2)s1 [Example 312, (1-Isopropyl-2-methyl-1H-imidazo[4,5-c]pyridin-6-yl)-[2-(2-methylaminothiazol-5-yl)pyrimidin-4-yl]amine]",0.84 nM,112 nM
"Cc1c(C(=O)NC2CCOCC2)c2cnc(Nc3ccnc(-c4cnn(S(=O)(=O)C5CC5)c4)n3)cc2n1C(C)C [Example 335, 6-((2-(1-(Cyclopropylsulfonyl)-1H-pyrazol-4-yl)pyrimidin-4-yl)amino)-1-isopropyl-2-methyl-N-(tetrahydro-2H-pyran-4-yl)-1H-pyrrolo[3,2-c]pyridine-3-carboxamide]",2.28 nM,252 nM
"C[C@H](n1c([C@@H](C)O)nc2cnc(Nc3ccnc(N4CCC(O)C(F)C4)n3)cc21)C(F)(F)F (mixture of isomers) [Example 296, cis-3-Fluoro-1-{4-[2-((R)-1-hydroxyethyl)-1-((S)-2,2,2-trifluoro-1-methylethyl)-1H-imidazo[4,5-c]pyridin-6-ylamino]pyrimidin-2-yl}piperidin-4-ol]",5.04 nM,189 nM
"COCC(C)(C)n1c(C)nc2cnc(Nc3ccnc(N4CCC(OC)CC4)n3)cc21 [Example 164, [1-(2-Methoxy-1,1-dimethylethyl)-2-methyl-1H-imidazo[4,5-c]pyridin-6-yl]-[2-(4-methoxypiperidin-1-yl)pyrimidin-4-yl]amine]",–,4710 nM
"CC(C)n1cc(C2CNC(=O)C2)c2cnc(Nc3ccnc(-c4cnn(S(=O)(=O)C5CC5)c4)n3)cc21 (centres unmarked) [Example 256, 4-(6-(2-(1-(Cyclopropylsulfonyl)-1H-pyrazol-4-yl)pyrimidin-4-ylamino)-1-isopropyl-1H-pyrrolo[3,2-c]pyridin-3-yl)pyrrolidin-2-one]",–,1050 nM
